The assay has as its target Mitogen-activated protein kinase kinase kinase 20 (ZAK) (Homo sapiens) (UniProt Q9NYL2). In words: Inhibition of ZAK (unknown origin) expressed in human HEK293 cells incubated for 2 hrs followed by NanoBRET NanoGlo Substrate addition by NanoBRET assay. A general note: Bioluminescence resonance energy transfer reports proximity on the nanometre scale.

Data on two molecules can be found in BindingDB's records for doi:10.1021/acs.jmedchem.9b01227 (Johann Wolfgang Goethe-University, 2019).

Mitogen-activated protein kinase kinase kinase 20 (ZAK) (Homo sapiens), sequence (Q9NYL2 whole entry, looked up): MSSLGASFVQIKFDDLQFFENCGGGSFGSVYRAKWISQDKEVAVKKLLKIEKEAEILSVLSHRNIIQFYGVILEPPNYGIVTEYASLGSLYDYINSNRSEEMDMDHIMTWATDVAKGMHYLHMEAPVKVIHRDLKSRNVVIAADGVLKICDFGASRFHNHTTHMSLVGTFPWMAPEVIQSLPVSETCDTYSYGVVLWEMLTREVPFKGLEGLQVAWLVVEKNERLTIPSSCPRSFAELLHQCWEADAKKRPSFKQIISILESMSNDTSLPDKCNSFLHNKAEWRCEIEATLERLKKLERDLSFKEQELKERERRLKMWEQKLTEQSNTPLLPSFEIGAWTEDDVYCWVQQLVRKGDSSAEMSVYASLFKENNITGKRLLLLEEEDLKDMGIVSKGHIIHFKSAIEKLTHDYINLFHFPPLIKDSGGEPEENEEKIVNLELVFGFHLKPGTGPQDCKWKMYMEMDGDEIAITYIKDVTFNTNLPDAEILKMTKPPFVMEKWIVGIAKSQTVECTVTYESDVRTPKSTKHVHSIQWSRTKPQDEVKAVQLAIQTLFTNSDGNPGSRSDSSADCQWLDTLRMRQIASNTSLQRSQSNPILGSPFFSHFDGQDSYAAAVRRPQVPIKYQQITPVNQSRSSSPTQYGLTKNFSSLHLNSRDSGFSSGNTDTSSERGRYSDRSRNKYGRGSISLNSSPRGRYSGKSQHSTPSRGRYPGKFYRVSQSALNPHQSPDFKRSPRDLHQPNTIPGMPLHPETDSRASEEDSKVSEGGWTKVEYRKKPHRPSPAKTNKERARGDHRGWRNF

Consider `Nc1c(C(=O)NCc2ccc(C(=O)NCCCC3CCCCC3)cc2)cnn1-c1ccccc1`, for which the half-maximal inhibitory concentration (IC50) worked out at 0.91 µM.

`O=C(NCCCC1CCCCC1)c1ccc(CNC(=O)c2cnn(-c3ccccc3)c2C(F)(F)F)cc1` yielded a half-inhibitory concentration (IC50) of 5.8 µM.

By IC50 is commonly meant the point on the concentration scale where inhibition reaches its midpoint. Low readings indicate greater potency, high ones weaker potency.
